# “Also recorded” adds a separate entry of the source.
# Assays:
# [1] = tested on: environmental enteropathy growth model; assay: Environmental enteropathy growth model (control diet or regional-based diet); format: in vivo, mouse; details: 2.5 g/L in drinking water from 4 weeks of age
# Source text: FIG. 41 is a scheme showing a 2′-FL experiment: Environmental Enteropathy. All dams were placed on Regional-based Diet when their pups were 10 days old. At weaning (3 weeks of age), pups were placed on either control diet (CD) or continued on regional-based diet (RBD), which is a malnutrition diet lacking nutrients. At 4 weeks of age, the pups were given either plain drinking water or 2-FL (2.5 g/L) in sipper sacs. Sipper sacs were changed and weighed every other day. Mice and food were weighed twice a week. Stool was collected at weaning, 6 weeks of age, and 8 weeks of age. Mice were sacrificed at 8 weeks of age. To further support the findings of the beneficial effect of 2′ FL supplementation on infant growth, another experiment as outlined in FIG. 41 was performed. All dams were placed on Regional-based Diet when their pups were 10 days old. At weaning (3 wks of age), pups were placed on either control diet (CD) or continued on regional-based diet (RBD), which is a malnutrition diet lacking nutrients. At 4 wks of age, the pups were given either plain drinking water or 2-FL (2.5 g/L) in sipper sacs. Sipper sacs were changed and weighed every other day. Mice and food were weighed twice a week. Stool was collected at weaning, 6 weeks of age, and 8 weeks of age. Mice were sacrificed at 8 weeks of age.
# [2] = tested on: small bowel luminal microbiome; assay: 16S sequencing of small bowel luminal contents after ICR; format: in vivo, mouse
# Source text: Luminal small bowel contents were expressed into AllProtect Tissue Reagent (Qiagen Inc, CA). Bacterial DNA was extracted using the AllPrep DNA/RNA Mini Kit (Qiagen Inc, CA), according to kit instructions and prior to sequencing (described below). Small bowel tissue samples for RNA were placed into RNA Later (Life Technologies, NY). RNA extraction was accomplished following Qiagen RNeasy Plus Kit instruction (Qiagen Inc, CA). All nucleic acid samples were then stored at −80 Celsius until sequenced (described below).
# Following bacterial community DNA extraction from harvested small bowel contents obtained from operated mice taken to 8 weeks, samples were quantified using the Qubit ssDNA kit (Life Technologies, NY). The V3 and V4 regions of the 16S gene were then amplified and tagged with region-specific primers (Illumina flowcell compatible sequences), permitting sequencing of up to 576 individual bacterial communities on the same flowcell. Fadrosh et al. (2014) Microbiome 2:6. Two positive and 2 negative controls were included in each run. FastStart Taq kit (Roche Applied Science, Indianapolis, Ind.) was used for thermocycling then equal volumes of each amplicon were pooled and cleaned using the QIAquick PCR cleanup column (Qiagen, MD). The size of library pools was then verified using the Fragment Analyzer CE (AATI, Ames Iowa) and quantified using the Qubit high sensitivity dsDNA kit. Dilution to 1 nM and addition of PhiX V3 library (Illumina, Calif.) was followed by denaturation and further dilution to 12 pM in Illumina's HT1 buffer. The pool was then loaded to the Illumina MiSeq V2 500 cycle kit cassette, a sample sheet prepared, and the MiSeq run was initiated for FASTQ generation.
# The 16S rRNA amplicon sequences were assembled and processed using an integrated, high-throughput analysis pipeline established at Cincinnati Children's Hospital Medical Center. Paired-end reads were assembled and quality filtered using Pandaseq v2.8. Masella et al. (2012) BMC bioinformatics 13: 31. Reads with ambiguous base calls, minimum overlap of 10 nt, or <425 nt were culled. Demultiplexing and removal of barcodes and primers was performed using the FastX-toolkit. Pearson et al. (1997) Genomics 46: 24-36. De novo clustering at 97% sequence similarity and chimera filtering was performed using UPARSE v7. Edgar (2013) Nature methods 10: 996-998. UCLUST, as implemented in QIIME v1.8, was used for taxonomic classification to the Greengenes v13.8 database. Caporaso et al. (2010) Nature methods 7: 335-336; Edgar (2010) Bioinformatics 26: 2460-2461; and McDonald et al. (2012) The ISME journal 6: 610-618. PyNast and FastTree were used to align sequence reads and construct a phylogenetic tree. Caporaso et al. (2010) Bioinformatics 26: 266-267; and Price et al. (2010) PloS one 5: e9490; Price M N et al. (2009) Molecular biology and evolution 26: 1641-1650. Additional integrated analyses included QIIME scripts for the generation of alpha and beta diversity metrics, corresponding visualizations, and summaries and plots of taxonomic composition. Alpha and beta diversity metrics were computed after subsampling to the lowest observed read depth (n=7,793 reads).
# In order to estimate the treatment effect on alpha diversity metrics adjusted for housing cohort, a generalized ANCOVA model was used. The Chaol, Shannon, Simpson and Faith's Phylogenetic Diversity indices were examined. Differences between groups in community composition post-treatment, as measured by the weighted and unweighted UniFrac metrics (Lozupone and Knight (2005) Applied and environmental microbiology 71: 8228-8235) were tested by permutational ANOVA as implemented by the ADONIS function in the R package vegan. Oksanen et al. (2015) Vegan: Community Ecology Package. 2015; and Team (2015) R: A language and environment for statistical computing R Foundation for Statistical Computing [http://www.R-project.org/. 2015]. […]
# [3] = luminal contents, postop vs preop
compound,measurement,setting,value
"C[C@@H]1O[C@@H](O[C@H]2[C@H](O[C@H]3[C@H](O)[C@@H](O)C(O)O[C@@H]3CO)O[C@H](CO)[C@H](O)[C@@H]2O)[C@@H](O)[C@H](O)[C@@H]1O (stereo partly drawn) [2′-FL, 2′-fucosyllactose]",growth (weight change over time),[1]; control diet,increased growth
same,growth (weight change over time),[1]; regional based diet (malnutrition diet),did not increase growth
same,relative abundance of Enterobacteriaceae after resection compared to control,[2]; [3],greater decline
same,relative abundance of Lachnospiraceae after resection compared to control,[2]; [3],relatively larger bloom
same,weighted or unweighted UniFrac metrics compared to control,"[2]; post-treatment, 8 weeks after ICR",Nor were differences in the weighted or unweighted UniFrac metrics detected
same,"other alpha-diversity metrics examined (Chao1, Simpson, Faith's Phylogenetic Diversity) compared to control",[2]; small bowel luminal contents 8 weeks after ICR,No differences were detected
same,microbial alpha diversity by Shannon diversity index compared to control,[2]; small bowel luminal contents 56 days after ICR,significant increase; also recorded: increased; also recorded: greater alpha diversity
same,enrichment of sequence reads of genus Parabacteroides (OTU_146) compared to controls,"[2]; small bowel luminal contents 56 days after ICR, adjusted for housing cohort",4.1 log 2-fold
same,increase in microbes of the genus Parabacteroides compared to controls,"[2]; supplemented, resected animals",> 4 fold

# Reference: US10857167B2, “Use of oligosaccharide compositions to enhance weight gain” (Children's Hospital Medical Center, priority 2015, dated 2020)
